± gives the expanded uncertainty stated by the source.
Conditions: 101.33 kPa, Liquid, Vibrating tube method

SMILES	mass density (273.15 K) [kg/m3]	mass density (278.15 K) [kg/m3]	mass density (283.15 K) [kg/m3]	mass density (288.15 K) [kg/m3]	mass density (293.15 K) [kg/m3]	mass density (298.15 K) [kg/m3]	mass density (303.15 K) [kg/m3]	mass density (308.15 K) [kg/m3]	mass density (313.15 K) [kg/m3]	mass density (318.15 K) [kg/m3]	mass density (323.15 K) [kg/m3]	mass density (328.15 K) [kg/m3]	mass density (333.15 K) [kg/m3]	mass density (338.15 K) [kg/m3]	mass density (343.15 K) [kg/m3]	mass density (348.15 K) [kg/m3]	mass density (353.15 K) [kg/m3]	mass density (358.15 K) [kg/m3]	mass density (363.15 K) [kg/m3]
CCCCCCCCC [nonane]	732.83 ± 0.25	729.01 ± 0.25	725.16 ± 0.25	721.32 ± 0.25	717.45 ± 0.25	713.58 ± 0.25	709.69 ± 0.25	705.78 ± 0.25	701.86 ± 0.25	697.91 ± 0.25	693.95 ± 0.25	689.97 ± 0.25	685.97 ± 0.25	681.94 ± 0.25	677.88 ± 0.25	673.91 ± 0.25	669.71 ± 0.26	665.58 ± 0.26	661.14 ± 0.26
CCCCCCCC [octane]	718.25 ± 0.25	714.31 ± 0.25	710.34 ± 0.25	706.35 ± 0.25	702.35 ± 0.25	698.34 ± 0.25	694.3 ± 0.25	690.24 ± 0.25	686.17 ± 0.25	682.06 ± 0.25	677.94 ± 0.25	673.79 ± 0.25	669.61 ± 0.26	665.4 ± 0.26	661.16 ± 0.26	656.88 ± 0.26	652.57 ± 0.26	648.23 ± 0.26	643.83 ± 0.26

From the NIST ThermoML archive (doi:10.1021/je200373q)
